Consider four molecules from ChEMBL document CHEMBL1149542, “Carbonic anhydrase inhibitors: inhibition of human, bacterial, and archaeal isozymes with benzene-1,3-disulfonamides--solution and crystallographic studies” (Bioorg Med Chem Lett, 2007).

Test [1] has as its target Carbonic anhydrase 6 (Homo sapiens) (UniProt P23280).
Test [2] concerns the target Carbonic anhydrase 5A, mitochondrial (Homo sapiens) (UniProt P35218).
Test [3] has as its target Carbonic anhydrase 12 (Homo sapiens) (UniProt O43570).
The target in test [4] is Carbonic anhydrase 13 (Mus musculus) (UniProt Q9D6N1). Kind of test: Inhibition of mouse CA13.
The target of test [5] is Carbonic anhydrase 5B, mitochondrial (Homo sapiens) (UniProt Q9Y2D0).
Test [6] concerns the target Carbonic anhydrase 9 (Homo sapiens) (UniProt Q16790).
Description: Inhibition of human CA9 catalytic domain
For test [7], the target named is Carbonic anhydrase 14 (Homo sapiens) (UniProt Q9ULX7).
For test [8], the target named is Carbonic anhydrase 4 (Homo sapiens) (UniProt P22748).
The target in test [9] is Carbonic anhydrase 7 (Homo sapiens) (UniProt P43166).
Test [10] deals with Carbonic anhydrase 1 (Homo sapiens) (UniProt P00915).
In test [11] the test system is Methanosarcina thermophila.
Description: Inhibition of Methanosarcina thermophila gamma CA
The subject of test [12] is Helicobacter pylori.
Description: Inhibition of Helicobacter pylori alpha CA
For test [13], the system named is Helicobacter pylori. This is another data set of the same source.
Description: Inhibition of Helicobacter pylori beta CA

Sequence of Carbonic anhydrase 5A, mitochondrial (Homo sapiens) (P35218 whole entry): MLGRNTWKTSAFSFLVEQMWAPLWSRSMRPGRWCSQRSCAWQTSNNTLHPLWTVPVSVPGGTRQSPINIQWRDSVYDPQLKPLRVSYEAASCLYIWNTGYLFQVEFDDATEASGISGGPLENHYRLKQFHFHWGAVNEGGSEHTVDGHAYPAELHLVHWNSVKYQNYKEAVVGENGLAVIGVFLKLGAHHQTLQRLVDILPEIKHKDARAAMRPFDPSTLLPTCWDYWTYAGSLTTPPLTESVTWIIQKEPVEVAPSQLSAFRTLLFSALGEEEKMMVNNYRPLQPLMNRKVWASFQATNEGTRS
Sequence of Carbonic anhydrase 14 (Homo sapiens) (Q9ULX7 whole entry): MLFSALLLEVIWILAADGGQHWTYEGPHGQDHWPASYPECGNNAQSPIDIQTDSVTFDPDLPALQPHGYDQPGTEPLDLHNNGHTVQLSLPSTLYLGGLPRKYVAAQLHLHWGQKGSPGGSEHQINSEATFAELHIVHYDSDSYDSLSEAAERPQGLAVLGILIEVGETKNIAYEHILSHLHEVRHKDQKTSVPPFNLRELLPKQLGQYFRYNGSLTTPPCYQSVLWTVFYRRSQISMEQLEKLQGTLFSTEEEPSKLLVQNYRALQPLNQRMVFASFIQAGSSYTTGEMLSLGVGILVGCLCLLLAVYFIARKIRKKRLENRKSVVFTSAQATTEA
Sequence of Carbonic anhydrase 6 (Homo sapiens) (P23280 whole entry): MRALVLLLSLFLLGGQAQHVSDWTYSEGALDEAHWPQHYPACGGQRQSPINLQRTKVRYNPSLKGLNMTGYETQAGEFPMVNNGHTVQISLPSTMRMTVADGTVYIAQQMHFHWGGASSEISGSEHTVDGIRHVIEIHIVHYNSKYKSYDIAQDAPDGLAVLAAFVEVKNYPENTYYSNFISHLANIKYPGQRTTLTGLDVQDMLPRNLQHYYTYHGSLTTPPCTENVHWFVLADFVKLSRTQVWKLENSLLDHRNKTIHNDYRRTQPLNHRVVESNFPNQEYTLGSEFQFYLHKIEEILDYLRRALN
Sequence of Carbonic anhydrase 5B, mitochondrial (Homo sapiens) (Q9Y2D0 whole entry): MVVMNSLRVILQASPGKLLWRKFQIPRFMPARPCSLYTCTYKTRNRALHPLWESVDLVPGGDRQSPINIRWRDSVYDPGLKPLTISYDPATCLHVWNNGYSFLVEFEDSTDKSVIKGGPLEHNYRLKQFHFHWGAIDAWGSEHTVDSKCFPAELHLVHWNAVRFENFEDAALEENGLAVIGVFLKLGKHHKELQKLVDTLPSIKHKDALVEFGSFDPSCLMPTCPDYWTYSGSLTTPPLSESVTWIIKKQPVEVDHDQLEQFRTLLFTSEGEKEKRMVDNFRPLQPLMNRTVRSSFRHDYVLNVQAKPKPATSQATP
Sequence of Carbonic anhydrase 4 (Homo sapiens) (P22748 whole entry): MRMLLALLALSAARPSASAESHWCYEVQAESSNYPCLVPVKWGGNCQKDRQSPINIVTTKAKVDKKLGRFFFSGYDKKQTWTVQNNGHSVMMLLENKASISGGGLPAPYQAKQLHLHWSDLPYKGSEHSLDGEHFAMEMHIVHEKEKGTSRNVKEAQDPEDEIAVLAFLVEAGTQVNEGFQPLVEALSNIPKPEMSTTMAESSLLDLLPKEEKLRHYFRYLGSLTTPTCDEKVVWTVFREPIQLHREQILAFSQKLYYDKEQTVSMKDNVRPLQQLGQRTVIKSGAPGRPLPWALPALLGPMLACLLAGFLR
Sequence of Carbonic anhydrase 12 (Homo sapiens) (O43570 whole entry): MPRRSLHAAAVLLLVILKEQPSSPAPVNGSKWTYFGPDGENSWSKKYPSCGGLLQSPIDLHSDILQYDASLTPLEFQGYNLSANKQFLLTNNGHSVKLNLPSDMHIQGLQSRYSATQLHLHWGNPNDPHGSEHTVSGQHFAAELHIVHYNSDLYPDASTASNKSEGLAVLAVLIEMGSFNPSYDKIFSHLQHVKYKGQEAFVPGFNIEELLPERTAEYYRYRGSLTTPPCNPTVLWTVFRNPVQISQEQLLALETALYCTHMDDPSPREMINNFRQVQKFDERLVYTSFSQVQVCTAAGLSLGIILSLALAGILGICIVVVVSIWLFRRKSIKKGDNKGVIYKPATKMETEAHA
Sequence of Carbonic anhydrase 7 (Homo sapiens) (P43166 whole entry): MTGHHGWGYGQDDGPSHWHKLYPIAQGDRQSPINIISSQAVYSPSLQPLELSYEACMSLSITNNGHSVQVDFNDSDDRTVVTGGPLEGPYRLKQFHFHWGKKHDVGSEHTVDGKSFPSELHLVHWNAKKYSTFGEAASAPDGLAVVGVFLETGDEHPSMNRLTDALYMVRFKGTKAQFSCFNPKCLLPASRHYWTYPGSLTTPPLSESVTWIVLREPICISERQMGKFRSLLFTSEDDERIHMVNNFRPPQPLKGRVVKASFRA
Sequence of Carbonic anhydrase 1 (Homo sapiens) (P00915 2-261 limits assumed): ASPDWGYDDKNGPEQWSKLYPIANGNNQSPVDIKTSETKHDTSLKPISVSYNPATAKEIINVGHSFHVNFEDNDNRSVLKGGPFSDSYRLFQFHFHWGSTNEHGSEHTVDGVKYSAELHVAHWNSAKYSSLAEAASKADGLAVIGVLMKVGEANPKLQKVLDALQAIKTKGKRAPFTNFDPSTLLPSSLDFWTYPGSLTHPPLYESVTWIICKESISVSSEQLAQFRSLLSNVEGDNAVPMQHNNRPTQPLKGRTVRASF
Sequence of Carbonic anhydrase 13 (Mus musculus) (Q9D6N1 whole entry, looked up): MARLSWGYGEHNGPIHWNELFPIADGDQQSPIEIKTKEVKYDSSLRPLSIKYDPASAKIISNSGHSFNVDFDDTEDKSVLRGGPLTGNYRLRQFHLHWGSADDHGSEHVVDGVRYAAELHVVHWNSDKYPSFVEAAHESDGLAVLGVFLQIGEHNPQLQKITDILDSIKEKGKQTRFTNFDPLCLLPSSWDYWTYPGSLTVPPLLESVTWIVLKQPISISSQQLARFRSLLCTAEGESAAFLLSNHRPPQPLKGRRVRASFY

With `NS(=O)(=O)c1cc2c(cc1Cl)NC(C(Cl)Cl)NS2(=O)=O` (stereo unspecified), the Kinact in [1] amounted to 3660 nM; in test [2] it was 4220 nM; in test [3], 355 nM; in test [4] it was 3.89 µM; in test [5] it was 603 nM; in test [6], 367 nM. Moreover, the Kinact in [7] is 4100 nM; in test [8] it was 427 nM.

As for `NS(=O)(=O)c1cc(C(=O)O)c(NCC2CCCO2)cc1Cl` (stereo unspecified), the Kinact in test [2] stood at 499 nM; in test [9], 513 nM; in test [10], 62 nM.

`CCN[C@H]1CN(CCCOC)S(=O)(=O)c2sc(S(N)(=O)=O)cc21`: the Kinact in test [1] amounted to 0.9 nM; in test [2] it was 50 nM; in test [5] it was 30 nM; in test [11] it was 460 nM; with Helicobacter pylori [12], 210 nM; in test [7], 24 nM. The Kinact with Helicobacter pylori [13] worked out at 128 nM.

For the molecule `CC(=O)/N=c1/sc(S(N)(=O)=O)nn1C`, the Kinact in [11] is 140 nM; in the test on Helicobacter pylori [12], 225 nM; in the test on Helicobacter pylori [13], 176 nM.
